Assay results as given in patent US9980943B2, “Methods of treating muscular dystrophy” (BOARD OF REGENTS OF THE NEVADA SYSTEM OF HIGHER EDUCATION, …, priority 2013, dated 2018).

Key:
Type in all cases: cell-based, mouse
[1] = test system: α7 integrin (LacZ reporter in α7βgal+/− myoblasts); experiment: Myoblast α7+/LacZ integrin FDG assay (Burkin assay in myoblasts, 96-well); details: α7+/LacZ myoblasts, 96-well
[2] = test system: β-galactosidase in CMV-LacZ C2C12 myotubes; experiment: CMV-LacZ secondary screen in C2C12 myotubes (β-Gal stabilizing assay); details: C2C12 CMV-LacZ myotubes, fold relative to DMSO
Procedure, shortened: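 β-Gal level was the read-out, measured in a clonal C2C12 line expressing LacZ from a CMV promoter. Dose-response curves used six concentrations, 0.5 μM up to 40 μM, with duplicate points.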

[3] = test system: α7 integrin (LacZ reporter in α7+/LacZ myotubes); experiment: Myotube α7 integrin FDG assay (Burkin assay in myotubes, 96-well); details: myotubes
[4] = test system: β-galactosidase in CMV-LacZ C2C12 myoblasts; experiment: CMV-LacZ secondary screen in C2C12 myoblasts (β-Gal stabilizing assay); details: CMV-LacZ C2C12 myoblasts
Procedure, shortened: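 β-gal stabilization was measured in C2C12 myoblasts or myotubes stably transfected with a CMV-driven LacZ construct, using the FDG β-gal assay. Compounds were tested in dose-response at 0.5, 1, 5, 10, 20 and 40 μM, with two replicates per point.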

Row | Structure (SMILES) | Burkin Assay in Myoblasts, signal relative to DMSO ([1]; 0.5 uM) | Burkin Assay in Myoblasts, signal relative to DMSO ([1]; 1 uM) | Burkin Assay in Myoblasts, signal relative to DMSO ([1]; 5 uM) | Burkin Assay in Myoblasts, signal relative to DMSO ([1]; 10 uM) | Burkin Assay in Myoblasts, signal relative to DMSO ([1]; 20 uM) | Burkin Assay in Myoblasts, signal relative to DMSO ([1]; 40 uM) | CMV-LACZ in Myotubes, signal relative to DMSO ([2]; 0.5 uM) | CMV-LACZ in Myotubes, signal relative to DMSO ([2]; 1 uM) | CMV-LACZ in Myotubes, signal relative to DMSO ([2]; 5 uM) | CMV-LACZ in Myotubes, signal relative to DMSO ([2]; 10 uM) | CMV-LACZ in Myotubes, signal relative to DMSO ([2]; 20 uM) | CMV-LACZ in Myotubes, signal relative to DMSO ([2]; 40 uM) | Burkin Assay in Myotubes, α7 integrin LacZ reporter signal relative to DMSO ([3]; 0.5 uM) | Burkin Assay in Myotubes, α7 integrin LacZ reporter signal relative to DMSO ([3]; 1 uM) | Burkin Assay in Myotubes, α7 integrin LacZ reporter signal relative to DMSO ([3]; 5 uM) | Burkin Assay in Myotubes, α7 integrin LacZ reporter signal relative to DMSO ([3]; 10 uM) | Burkin Assay in Myotubes, α7 integrin LacZ reporter signal relative to DMSO ([3]; 20 uM) | Burkin Assay in Myotubes, α7 integrin LacZ reporter signal relative to DMSO ([3]; 40 uM) | CMV-LACZ in Myoblasts (β-galactosidase activity relative to DMSO) ([4]; 0.5 uM) | CMV-LACZ in Myoblasts (β-galactosidase activity relative to DMSO) ([4]; 1 uM) | other results
1 | COc1ccc(CCNC(=O)Cn2nnc(C(=O)Nc3ccc(Br)cc3)c2N)cc1OC [MLS000912699-01] | 1.115 | 1.038 | 0.9322 | 0.9298 | 0.6724 | 0.4392 | 0.8089 | 0.9859 | 0.9419 | 1.1310 | 0.9235 | 0.5365 | 1.175 | 0.9376 | 0.9252 | 0.939 | 0.5217 | 0.6518 | 0.7147 | 0.8744 | CMV-LACZ in Myoblasts (β-galactosidase activity relative to DMSO) ([4]; 5 uM): 0.9111; CMV-LACZ in Myoblasts (β-galactosidase activity relative to DMSO) ([4]; 10 uM): 1.0462; CMV-LACZ in Myoblasts (β-galactosidase activity relative to DMSO) ([4]; 20 uM): 0.8826; CMV-LACZ in Myoblasts (β-galactosidase activity relative to DMSO) ([4]; 40 uM): 0.5204
2 | CCNC(=O)C(=O)Nc1cc2c3c(c1)CCN3C(=O)CC2 [MLS001167798-01] | 1.058 | 1.166 | 1.277 | 1.064 | 1.051 | 1.006 | 0.9143 | 0.9295 | 1.1987 | 1.2238 | 1.3337 | 1.2800 | 1.051 | 0.9243 | 1.118 | 0.9382 | 0.7983 | 0.7231 | 1.0342 | 0.7750 | CMV-LACZ in Myoblasts (β-galactosidase activity relative to DMSO) ([4]; 5 uM): 1.1822; CMV-LACZ in Myoblasts (β-galactosidase activity relative to DMSO) ([4]; 10 uM): 1.1494; CMV-LACZ in Myoblasts (β-galactosidase activity relative to DMSO) ([4]; 20 uM): 1.2196; CMV-LACZ in Myoblasts (β-galactosidase activity relative to DMSO) ([4]; 40 uM): 1.1452
3 | CCOc1ccccc1NC(=O)COC(=O)CNS(=O)(=O)c1ccc(C)cc1 [MLS000393567-01] | 1.032 | 1.051 | 0.9724 | 0.9325 | 0.8334 | 0.8705 | 1.0400 | 0.9524 | 0.9322 | 0.9858 | 1.0160 | 0.9100 | 0.8882 | 0.9953 | 0.9065 | 0.8857 | 0.8607 | 0.9237 | 1.2117 | 1.1373 | CMV-LACZ in Myoblasts (β-galactosidase activity relative to DMSO) ([4]; 5 uM): 0.6593; CMV-LACZ in Myoblasts (β-galactosidase activity relative to DMSO) ([4]; 10 uM): 0.8148; CMV-LACZ in Myoblasts (β-galactosidase activity relative to DMSO) ([4]; 20 uM): 1.0175; CMV-LACZ in Myoblasts (β-galactosidase activity relative to DMSO) ([4]; 40 uM): 1.1319
4 | CCC(CC)C(=O)Nc1c(C(=O)N2CCN(c3ccccc3)CC2)oc2ccccc12 [MLS001116079-01] | 1.03 | 1.087 | 1.025 | 0.9749 | 1.244 | 1.34 | 1.3543 | 0.8152 | 1.0227 | 1.1374 | 0.9063 | 1.0811 | 0.9524 | 0.9502 | 0.9559 | 0.9012 | 0.9027 | 0.9686 | 1.0950 | 1.0492 | CMV-LACZ in Myoblasts (β-galactosidase activity relative to DMSO) ([4]; 5 uM): 0.9306; CMV-LACZ in Myoblasts (β-galactosidase activity relative to DMSO) ([4]; 10 uM): 1.0228; CMV-LACZ in Myoblasts (β-galactosidase activity relative to DMSO) ([4]; 20 uM): 1.0448; CMV-LACZ in Myoblasts (β-galactosidase activity relative to DMSO) ([4]; 40 uM): 0.9078
5 | CCC(=O)c1ccc(OCC(O)CN2CC(C)OC(C)C2)cc1.O=C(O)C(=O)O (stereo not drawn) [MLS000053342-01] | 1.222 | 1.088 | 0.9766 | 0.8668 | 1.0354 | 1.022 | 0.9947 | 0.9863 | 0.9033 | 0.9187 | 1.3044 | 1.1344 | 1.059 | 1.011 | 1.002 | 1.03 | 1.049 | 1.11 | 1.0289 | 1.0397 | CMV-LACZ in Myoblasts (β-galactosidase activity relative to DMSO) ([4]; 5 uM): 1.0865; CMV-LACZ in Myoblasts (β-galactosidase activity relative to DMSO) ([4]; 10 uM): 0.8785; CMV-LACZ in Myoblasts (β-galactosidase activity relative to DMSO) ([4]; 20 uM): 0.9811; CMV-LACZ in Myoblasts (β-galactosidase activity relative to DMSO) ([4]; 40 uM): 0.9930
